Measurements reported in publication PMC2628309 (Journal of the American Chemical Society, 2008).
Read-outs that look alike come from different tables or passages of the source.

What was measured:
SH2 domain = details: validated SH2 domain ligand; cited from earlier work
Src tyrosine kinase [1] = biological target: T1, Src tyrosine kinase (Homo sapiens, UniProt P12931); assay: Src kinase inhibition; type: biochemical
Src tyrosine kinase [2] = biological target: T1, Src tyrosine kinase; details: cited from earlier work
[3] = Table 1, Src inhibitors, pre-photolysis

Substance	IC50 (Src tyrosine kinase [1]; [3]) [nM]	other results
Ac-pTyrGluGluIle-amide		Kd (SH2 domain): 1000 to 5000 nM
Ba-EEEIFGE-II-Dap(Hna)-βA3-pYEEIEX [Compound 7]	220 ± 10	
Ba-EEEIFGE-III-Dap(Hna)-βA3-pY-III-EIEX [Compound 9]	7500	
Ba-EEEIFGEF-Dap(Hna)-βA3-pYEEIEX [Compound 1]		IC50 (Src tyrosine kinase [2]): 36 ± 2 nM; Ki (Src tyrosine kinase [2]): 26 ± 4 nM
Ba-EEEIFGEF-Dap(Hna)-βA-I-βA-pYEEIEX [Compound 4]	115 ± 9	
Ba-EEEIFGEF-Dap(Hna)-βA-II-βA-pYEEIEX [Compound 5]	38 ± 4	
Ba-EEEIFGEF-Dap(Hna)-βA-III-βA-pY-III-EIEX [Compound 10]	1600	
Ba-EEEIFGEF-Dap(Hna)-βA-III-βA-pYEEIEX [Compound 6]	18 ± 5	Src kinase activity in the presence of inhibitor (Src tyrosine kinase [1]; 1.9 μM inhibitor, no irradiation): completely blocked; IC50 (Src tyrosine kinase [1]; in the presence of 320 μM Ac-pTyrGluGluIle-amide (SH2 ligand competition)): 325 ± 60 nM
Ba-EEEIFGEF-Dap(Hna)C-III-βA-pYEEIE-NH2 [Compound 11]	56 ± 4	
